We go through two compounds from publication PMC6743422, “Preclinical disposition of MGS0274 besylate, a prodrug of a potent group II metabotropic glutamate receptor agonist MGS0008 for the treatment of schizophrenia” (Pharmacology Research & Perspectives, 2019).

Several values for one entry are separate records, joined by “and”; a condition that tells them apart may be missing. Equal values may be shown once. Entries after “also recorded” stand apart in the source; their conditions may differ. Read-outs that look alike come from different tables or passages of the source.

Data set [1] can be described thus: Pharmacokinetics of MGS0008 in monkeys (intravenous or oral). It counts as in vivo, cynomolgus monkey. As to conditions: fed male monkeys; for AUC(0-t): read-out: AUC0–24h. As to the method: (§1) The pharmacokinetic profiles of MGS0008 and MGS0274 were investigated in fasted male Wistar rats (n = 3) and fed male cynomolgus monkeys (n = 4). Monkeys had been given 60 g of a primate diet (PS‐A; Oriental Yeast, Tokyo, Japan) one hour before administration. For intravenous administration, MGS0008 was dissolved in saline (pH7.4) and administered to rats (3 mg/kg) and monkeys (1 mg/kg). Blood samples were collected from the tail vein (rats) or the forelimb cephalic vein (monkeys) into tubes containing EDTA‐2K at 5, 15, and 30 minutes and at 1, 2, 4, 8, and 24 hours postdose for both species, and an additional sample was collected at 12 hours postdose for monkeys. Urine samples were collected until 48 hours at 24‐hour intervals (rats) or at 0‐ to 8‐hour, 8‐ to 24‐hour, and 24‐ to 48‐hour intervals (monkeys). The plasma or urine samples was mixed with acetonitrile/methanol (9:1, v/v) containing [^13C2 ^15N]MGS0008 and centrifuged. Aliquots of the supernatant were subjected to bioanalysis using LC‐MS/MS (see Table S1‐E). For oral administration, MGS0008 was dissolved in distilled water (rats) or 0.5% w/v methylcellulose 400 (monkeys) and administered to rats (3 mg/kg) and monkeys (1 mg/kg). MGS0274 besylate was suspended in 0.5% w/v methylcellulose 400 containing 0.1% v/v Tween 80 and administered to monkeys at a dose of 2.89 mg/kg (1‐mg equivalent of MGS0008/kg). Blood samples were collected from the tail vein (rats) or the forelimb cephalic vein (monkeys) into tubes containing EDTA‐2K at 30 minutes, 1, 1.5, 2, 4, 6, 8, and 24 hours postdose for rats, and 30 minutes, 1, 2, 4, 8, 12, and 24 hours postdose for monkeys. The plasma samples were mixed with acetonitrile/methanol (9:1, v/v) containing internal standards ([^13C2 ^15N]MGS0008 and MGS0039) and centrifuged. Aliquots of the supernatant were subjected to bioanalysis using LC‐MS/MS (see Tables S1‐E and F). In the study examining the tissue distribution of MGS0008 in rats (3 mg/kg), blood samples were collected from the posterior vena cava into tubes containing EDTA‐2K under isoflurane anesthesia at 1.5, 4, 6, or 24 hours postdose. Then, the animals were euthanized by exsanguination from the abdominal aorta; cerebrospinal fluid (CSF) samples were drawn from the spinal cord space in each animal. The plasma or CSF was mixed with acetonitrile/methanol (9:1, v/v) containing [^13C2 ^15N]MGS0008 and centrifuged. Aliquots of the supernatant were subjected to bioanalysis using LC‐MS/MS (see Table S1‐E).
(§2) The plasma concentration‐time profiles of MGS0008 and MGS0274 were analyzed using a non‐compartmental analysis method with pharmacokinetic analysis software Phoenix® WinNonlin® 6.2 or later (Certara, Princeton, NJ).

Data set [2] is described as follows: Plasma and CSF distribution of MGS0008 in rats. Particulars: Wistar, rat, fasted male rats, MGS0008 oral 3 mg/kg. It is filed as in vivo. As to the method:
as §1, §2

A short description of data set [3]: Pharmacokinetics after oral MGS0274 besylate in monkeys. As to conditions: fed male monkeys, MGS0274 besylate oral 2.89 mg/kg. It counts as in vivo, cynomolgus monkey. As to the method: The pharmacokinetic profiles of MGS0008 and MGS0274 were investigated in fasted male Wistar rats (n = 3) and fed male cynomolgus monkeys (n = 4). Monkeys had been given 60 g of a primate diet (PS‐A; Oriental Yeast, Tokyo, Japan) one hour before administration. For intravenous administration, MGS0008 was dissolved in saline (pH7.4) and administered to rats (3 mg/kg) and monkeys (1 mg/kg). Blood samples were collected from the tail vein (rats) or the forelimb cephalic vein (monkeys) into tubes containing EDTA‐2K at 5, 15, and 30 minutes and at 1, 2, 4, 8, and 24 hours postdose for both species, and an additional sample was collected at 12 hours postdose for monkeys. Urine samples were collected until 48 hours at 24‐hour intervals (rats) or at 0‐ to 8‐hour, 8‐ to 24‐hour, and 24‐ to 48‐hour intervals (monkeys). The plasma or urine samples was mixed with acetonitrile/methanol (9:1, v/v) containing [^13C2 ^15N]MGS0008 and centrifuged. Aliquots of the supernatant were subjected to bioanalysis using LC‐MS/MS (see Table S1‐E). For oral administration, MGS0008 was dissolved in distilled water (rats) or 0.5% w/v methylcellulose 400 (monkeys) and administered to rats (3 mg/kg) and monkeys (1 mg/kg). MGS0274 besylate was suspended in 0.5% w/v methylcellulose 400 containing 0.1% v/v Tween 80 and administered to monkeys at a dose of 2.89 mg/kg (1‐mg equivalent of MGS0008/kg). Blood samples were collected from the tail vein (rats) or the forelimb cephalic vein (monkeys) into tubes containing EDTA‐2K at 30 minutes, 1, 1.5, 2, 4, 6, 8, and 24 hours postdose for rats, and 30 minutes, 1, 2, 4, 8, 12, and 24 hours postdose for monkeys. The plasma samples were mixed with acetonitrile/methanol (9:1, v/v) containing internal standards ([^13C2 ^15N]MGS0008 and MGS0039) and centrifuged. Aliquots of the supernatant were subjected to bioanalysis using LC‐MS/MS (see Tables S1‐E and F). In the study examining the tissue distribution of MGS0008 in rats (3 mg/kg), blood samples were collected from the posterior vena cava into tubes containing EDTA‐2K under isoflurane anesthesia at 1.5, 4, 6, or 24 hours postdose. Then, the animals were euthanized by exsanguination from the abdominal aorta; cerebrospinal fluid (CSF) samples were drawn from the spinal cord space in each animal. The plasma or CSF was mixed with acetonitrile/methanol (9:1, v/v) containing [^13C2 ^15N]MGS0008 and centrifuged. Aliquots of the supernatant were subjected to bioanalysis using LC‐MS/MS (see Table S1‐E). The plasma concentration‐time profiles of MGS0008 and MGS0274 were analyzed using a non‐compartmental analysis method with pharmacokinetic analysis software Phoenix® WinNonlin® 6.2 or later (Certara, Princeton, NJ).

Where [4] appears, read: cynomolgus monkey, MGS0008 intravenous 1 mg/kg, plasma.
Setting [5] is: cynomolgus monkey, MGS0008 oral 1 mg/kg, plasma.
The mark [6] stands for this setting: CSF, read-out: CSF concentration.
[7] abbreviates: plasma, read-out: Plasma concentration.
Setting [8] is: cynomolgus monkey, plasma, compound monitored MGS0274, mean of two animals.

As to `N[C@]1(C(=O)O)[C@H]2[C@@H](C[C@@H]1F)[C@@H]2C(=O)O` [MGS0008, (1S,2S,3S,5R,6S)‐2‐amino‐3‐fluorobicyclo[3.1.0]hexane‐2,6‐dicarboxylic acid], the concentration at 24 h in data set [1] (cynomolgus monkey, plasma, MGS0008 intravenous 1 mg/kg, below lower limit of quantification) was under 3 ng/mL. For the same compound, the clearance in data set [1] (cynomolgus monkey, plasma, MGS0008 intravenous 1 mg/kg, mean ± SD (n = 4), read-out: CLtotal (converted)) is 2.15 mL/min/kg. In data set [1] (cynomolgus monkey, plasma, MGS0008 intravenous 1 mg/kg, mean ± SD (n = 4), read-out: Vdss), the Vd is 0.181 ± 0.0214 L/kg. For the same compound, in data set [1] (cynomolgus monkey, plasma, MGS0008 oral 1 mg/kg, AUC0-24h oral / AUC0-24h intravenous × 100), the bioavailability (usually the share of a dose that reaches the circulation, judged against a reference dose that is usually intravenous) was 3.8 ± 2.8%. Moreover, the CL renal in data set [1] (cynomolgus monkey, urine and plasma, MGS0008 intravenous 1 mg/kg) was 2.07 mL/min/kg. Also, in data set [1] (setting [4]), the half-life (commonly the time in which the quantity being followed falls by half) was 1.48 ± 0.0435 h and the AUC(0-t) was found to be 7830 ± 776 ng·h/mL. In data set [1] (setting [5]), the Cmax (commonly the maximum level reached in the sampled fluid or tissue) was determined as 20.5 ± 11.5 ng/mL; the Tmax (in general, the time at which the peak concentration occurs) stood at 9 ± 10 h; the AUC(0-t) was 281 ± 177 ng·h/mL. The vomiting entry in data set [1] (MGS0008 intravenous 1 mg/kg) is reported as “three of the four monkeys experienced transient vomiting”. Also, the “Urinary excretion (unchanged form)” value in data set [1] (MGS0008 intravenous 1 mg/kg, within 48 hours, % of administered dose, 1 mg/kg) was 96.4% and 96.4 ± 7.51%. Besides, the Kp in data set [2] (CSF/plasma, read-out: CSF/plasma AUC ratio) is 0.028. In data set [2] (setting [6]), the concentration at 1.5 h came out at 19.1 ± 5.08 ng/mL, the concentration at 4 h was 7.88 ± 1.04 ng/mL, the concentration at 6 h is 4.84 ± 0.384 ng/mL and the concentration at 24 h stood at 2.04 ± 0.0265 ng/mL. For the same compound, the AUC(0-t) in data set [2] (CSF, read-out: AUC0–24h in CSF) was 123 ± 7.37 ng·h/mL. In data set [2] (setting [7]), the concentration at 1.5 h stood at 1980 ± 431 ng/mL, the concentration at 4 h came out at 138 ± 64.2 ng/mL and the concentration at 6 h was 6.23 ± 1.83 ng/mL. In addition, the concentration at 24 h in data set [2] (plasma, below lower limit of quantification, read-out: Plasma concentration) is under 3 ng/mL. Also, the AUC(0-t) in data set [2] (plasma, read-out: AUC0–24h in plasma) is 4330 ± 719 ng·h/mL.
Take `CC(C)[C@@H]1CC[C@@H](C)C[C@H]1OC(=O)O[C@@H](C)OC(=O)[C@H]1[C@@H]2C[C@H](F)[C@@](N)(C(=O)O)[C@@H]21.O=S(=O)(O)c1ccccc1` [MGS0274 besylate, (1S,2S,3S,5R,6S)‐2‐amino‐3‐fluoro‐6‐({(1S)‐1‐[({[(1R,2S,5R)‐5‐methyl‐2‐(propan‐2‐yl)cyclohexyl]oxy}carbonyl)oxy]ethoxy}carbonyl)bicyclo[3.1.0]hexane‐2‐carboxylic acid monobenzenesulfonate]: in data set [3] (setting [8]), the Cmax came to 1.28 ng/mL and the Tmax was found to be 1 h. Further, the AUC(0-t) in data set [3] (cynomolgus monkey, plasma, compound monitored MGS0274, mean of two animals, read-out: AUC0–24h of MGS0274) turned out to be 2.03 ng·h/mL. Further, the vomiting result in data set [3] is reported as “two of the four monkeys experienced vomiting”. Further, the MGS0274 in plasma entry in data set [3] (lower limit of quantification 1 ng/mL, 2.89 mg/kg) was “barely detectable; also recorded: barely detected”.
